# Where “and” joins values, the source holds several entries; their conditions need not be identical. Identical values can stand only once.
# Tests used:
# renal allografts = experiment: Renal allograft survival; format: in vivo, DA rats; conditions: pump; for No. of rats surviving more than 14 days: DA rats with (DA/LEW) renal allografts; for No. of days of Survival: the rat surviving more than 14 days
# Description: One kidney from each rat was replaced with a donor kidney, after which the remaining original rat kidney was removed. The results are set out in Table 5 below: Table 5
# [1] = test system: passively induced adjuvant arthritis; experiment: Passively induced adjuvant arthritis, change in foot volume; format: in vivo, (DAxLewis)F₁ rats; conditions: for % Δ in foot volume: 350 mg/kg/day s.c. osmotic pump from cell transfer, individual rats, 350 mg/kg/day
# Procedure: (DAxLewis)F₁ rats were immunized with 3mg M.butyricum in light mineral oil injected intradermally in both hind feet. Ten days later spleens were removed and made into a single cell suspension in RPMI containing 5% fetal calf serum, 200mM L Glutamine, 5 x 10⁻ ⁵M 2-ME, penicillin and streptomycin. Cells were adjusted to 2 x 10⁶ cells/ml, and cultured in 50ml media in 75mm culture flasks. ConA was added at 2µg/ml and cultures incubated for 72hrs at 37°C in an atmosphere of 10% CO₂, 7% O₂ and the balance N₂. Cells were then washed and transferred at 50 x 10⁶ or 60 x 10⁶ cells/rat i.v. into 10 weeks old male (DAxLewis)F₁.
# Castanospermine was put in osmotic pumps (Alza Corp.) which delivered 5µl/hr for 14 days. Pumps were implanted subcutaneously at the time of cell transfer. Rats received 350mg/kg/day of castanospermine.
# Hind feet of rats were measured in 4 diameters beginning the day of cell transfer. The measurements are averaged and expressed as % change in volume of feet.
# Two experiments have been performed both treating rats with 350mg/kg/day castanospermine beginning the day of cell transfer.
# [2] = Preliminary toxicity studies; format: in vivo; conditions: 500 mg/kg/day for 7 days; animals observed for a 6 week period after treatment; data not shown
# [3] = test system: Delayed hypersensitivity (DTH); experiment: Delayed hypersensitivity (DTH) to sheep red blood cells, foot swelling; format: in vivo, C57BL mice; conditions: CS ip every 4 hours from footpad testing, total 300 mg/kg/mouse over 24 hrs; 5 mice/group; control group 33%
# Procedure: C57BL mice were given 10⁸ sheep red blood cells (SRBC) intravenously. Five days later 10⁵ SRBC in a volume of […] was injected into the left hind footpad and […] saline into the right. Castanospermine was given every 4 hours ip beginning at the time of footpad testing. Total dose of CS over 24 hrs was 300 mg/kg/mouse. Control mice were given saline every 4 hours, and 5 mice/group were used in both test and control groups.
# pancreatic islets = experiment: Transplantation of allogeneic pancreatic islets, graft rejection by blood glucose; format: in vivo, CBA mice
# Procedure: Donor mice were Balb/c (H2^d) and recipients were CBA (H2^k). Donor pancreatic islets were prepared using standard techniques. Approximately 400 islets were isolated from 10 donor mice. These freshly isolated islets, in groups of 50, were placed into CBA blood clots and these were placed under the kidney capsule of CBA mice which were diabetic (blood glucose 20mM/litre).
# Two recipients were implanted (subcutaneously) with miniosmotic pumps containing CS at the time of islet transplantation. These pumps delivered CS at a dose of 300 mg/kg/mouse/day for a period of 14 days. Two control mice were sham operated.
# Blood samples (10µl) were taken daily and assayed for blood glucose using an automatic analyser (Beckman Glucose Analyzer 2).
# All transplant recipients became normoglycaemic within 24 hours indicating successful transplantation of all of the grafts. Rejection of grafts was assumed to occur when animals became hyperglycaemic. Control animals rejected on days 9 and 12.
# passive EAE = experiment: Passively induced experimental allergic encephalomyelitis (passive EAE), clinical grading and CNS histology; format: in vivo, Lewis (RT-1') rats; conditions: for protection against clinical EAE: osmotic pump implanted at time of cell transfer; for mean clinical score: score out of possible 5 ± standard errors
# [4] = Table 1, CS 100 mg/kg/day, s.c. miniosmotic pump at time of cell transfer
# [5] = Table 1, CS 200 mg/kg/day, s.c. miniosmotic pump at time of cell transfer
compound,measurement,setting,value
"O[C@H]1[C@H](O)[C@@H](O)CN2CC[C@H](O)[C@H]12 [CS, Castanospermine]",No. of rats surviving more than 14 days,"renal allografts; 100mg/kg, 9 rats",1
same,No. of days of Survival,renal allografts; 100mg/kg,100 days
same,No. of rats surviving more than 14 days,"renal allografts; 250mg/kg, 7 rats",1
same,No. of days of Survival,renal allografts; 250mg/kg,33 days
same,% Δ in foot volume,"[1]; Exp 1, 50 x 10^6 cells, Day 7",-5% and 5% and 0% and +12%
same,% Δ in foot volume,"[1]; Exp 1, 50 x 10^6 cells, Day 14",-1% and 0% and +9% and +4%
same,inflammation of feet,"[1]; Exp 1 and Exp 2, 350 mg/kg/day from cell transfer",In no case did any of the CS treated rats show inflammation
same,% Δ in foot volume,"[1]; Exp 2, 60 x 10^6 cells, Day 7",-5% and -7% and -3% and +3%
same,% Δ in foot volume,"[1]; Exp 2, 60 x 10^6 cells, Day 14",-8% and -18% and -14% and -1%
same,swelling and inflammation after end of treatment,"[1]; Exp 2, pumps removed on day 15, animals followed out to day 28+",remained normal
same,toxic effect,[2],no apparent toxic effect
same,increase in foot swelling,[3],11%
same,day of graft rejection (hyperglycaemia),"pancreatic islets; Balb/c islets in diabetic CBA mice, 300 mg/kg/mouse/day s.c. miniosmotic pump for 14 days, one mouse, controls rejected on days 9 and 12",19 days
same,day of graft rejection (hyperglycaemia),"pancreatic islets; other CS treated mouse, whose miniosmotic pump was found not to have delivered its CS payload",12 days
same,protection against clinical EAE,passive EAE; 100 mg/kg/day,no protective effect
same,protection against clinical EAE,passive EAE; 200 mg/kg/day,only partial protection
same,number of inflammatory lesions in CNS tissues (histology),"passive EAE; 300 mg/kg/day from cell transfer, rats killed at day 8, compared with untreated rats",approximately the same number of inflammatory lesions as untreated rats
same,protection against clinical EAE,passive EAE; 300 mg/kg/day,complete protection
same,mean day of onset,passive EAE; [4],4±0
same,mean clinical score,passive EAE; [4],4.0±0
same,animals with EAE,"passive EAE; Table 1, CS 100 mg/kg/day, s.c. miniosmotic pump placed at time of cell transfer",4/4
same,mean day of onset,passive EAE; [5],5±0
same,mean clinical score,passive EAE; [5],2.0±0
same,animals with EAE,"passive EAE; Table 1, CS 200 mg/kg/day, s.c. miniosmotic pump placed at time of cell transfer",4/4
same,animals with EAE,"passive EAE; Table 1, CS 300 mg/kg/day, s.c. miniosmotic pump placed at time of cell transfer",0/4
same,animals with EAE,"passive EAE; Table 2, convalescent rats (compromised blood-brain barrier), CS 300 mg/kg/day, s.c. miniosmotic pump at time of secondary cell transfer",0/4
same,animals with EAE,"passive EAE; Table 2, naive rats, CS 300 mg/kg/day, s.c. miniosmotic pump at time of cell transfer",0/4
same,animals with EAE,"passive EAE; Table 3, experiment 1, CS 150 mg/kg i.p., 12 hourly, initiated on day 4 (before clinical signs), for 3 days",0/3
same,animals with EAE,"passive EAE; Table 3, experiment 2, CS 150 mg/kg i.p., 12 hourly, initiated on day 4 (after onset of signs)",3/3
same,mean clinical score,"passive EAE; Table 3, experiment 2, CS 150 mg/kg i.p., 12 hourly, initiated on day 4",4±0
same,animals with EAE,"passive EAE; Table 3, experiment 3, CS 300 mg/kg osmotic pump, initiated on day 4 (after onset of signs)",5/5
same,mean clinical score,"passive EAE; Table 3, experiment 3, CS 300 mg/kg osmotic pump, initiated on day 4",4±0
same,clinical signs of EAE with delayed treatment,"passive EAE; exp.1, two 150 mg/kg i.p. injections daily from 4 days after cell transfer for 3 days, signs in untreated animals not apparent until day 6",did not develop clinical signs of EAE
same,clinical signs of EAE with delayed treatment,"passive EAE; exp.3, osmotic pumps implanted on day 4 after cell transfer, all animals showed mild clinical signs on day 4",failed to modify subsequent disease expression
same,second episode of passively induced EAE,"passive EAE; rats recovered from one episode, pump delivering 300 mg/kg/day on the day of secondary transfer",did not develop a second episode of the disease

# From patent publication EP0430983B1, “USE OF CASTANOSPERMINE AS AN ANTI-INFLAMMATORY AND IMMUNOSUPPRESSANT AGENT” (THE AUSTRALIAN NATIONAL UNIVERSITY, priority 1988, dated 1990)
